The text below walks through data of patent publication US20110009628A1, “Compounds and Compositions for Modulating Lipid Levels and Methods of Preparing Same” (priority 2009, published 2011).

Common to all, as to type: cell-based, human
The test system of assay [1] is PCSK9 mRNA expression in HepG2 cells. Put plainly: PCSK9 mRNA expression in HepG2 cells, quantitative real-time RT-PCR (Example 12). Conditions: 24 hours. How it is done:
(§1) The effects of compounds on the mRNA expressions of LDLR and PCSK9 were examined using quantitative real-time RT-PCR assays. HepG2 cells were treated with various compounds at 10 and 40 uM concentrations for 24 hours. Total RNA was isolated and […] was used to generate cDNA in a reaction containing random primers and M-MLV at 37° C. for 1 h in a volume of 25 μL. Real-time PCR was performed on the cDNA using MCEP REALPLEX 2 SYSTEM (Eppendorf) and Universal MasterMix (Applied Biosystems). Human LDLR, PCSK9, and GAPDH Pre-Developed TaqMan Assay Reagents (Applied Biosystems) were used to assess the levels of mRNA expressions in HepG2. The levels of LDLR and PCSK9 mRNA were normalized to that of GAPDH. Each RNA samples was assayed in duplicate. The fold activity was calculated by dividing mRNA abundance in compound treated cells with that of control.

In assay [2] the test system is LDLR mRNA expression in HepG2 cells. Put plainly: LDLR mRNA expression in HepG2 cells, quantitative real-time RT-PCR (Example 12). Conditions: Homo sapiens, 24 hours; for fold induction at 10 µM: read-out: Activity on LDLR mRNA at 10 uM (fold of control); for fold induction at 40 µM: read-out: Activity on LDLR mRNA at 40 uM (fold of control). On the procedure:
as §1

Assay [3] relates to LDL ligand uptake activity in HepG2 cells. The assay can be described thus: DiI-LDL uptake in HepG2 cells (Example 12). How it is done: The combined beneficial effects of these novel compounds on elevation of LDLR mRNA levels likely through the mechanism of mRNA stabilization and their inhibitory activity towards PCSK9, the secreted protease that degrades LDLR protein, result in strong increases in LDL ligand uptake activity through increased receptor surface abundance. […] Briefly, HepG2 cells (2×10^5 cells/well) in 24-well culture plates were treated with various compounds at 10 and 40 uM concentrations for 20 hours. The fluorescent 1.1′-dioctadecyl-3,3,3′,3′-tetramethylindocarbocyanin perchlorate (DiI-LDL) (Biomedical Technologies, Stoughton, Mass.) at a concentration of 2 μg/ml was added to cells at the end of treatment. After 4 hours, the medium was removed; cells were washed with cold PBS, and were examined immediately under a fluorescent microscope (Nikon) at 200× amplification. The fluorescent intensity in compound-treated cells was compared to that in untreated control cells. […]

Setting [4] is: 10 uM, 20 hours (first symbol of cell).
Setting [5] is: 40 uM, 20 hours (second symbol of cell).

On to `COc1ccc2c(c1OS(=O)(=O)c1cccc(F)c1)CN1CCc3cc(C)ccc3C1C2` (centres unmarked) [Compound 130, 10-Methoxy-3-methyl-5,6,7,8,13,13a-hexahydroisoquinolino[2,1-b]isoquinolin-9-yl 3-fluorobenzenesulfonate], for which, in assay [1], the “PCSK9 mRNA level at 10 uM (fold of control)” value is on record as 2.11 ± 0.11 fold of control and the “Activity on PCSK9 mRNA reduction at 40 uM (fold of control)” value was 0.84 ± 0.12 fold of control. Also, in assay [2], the fold induction at 10 µM was 4.29 ± 0.65 and the fold induction at 40 µM was 9 ± 1.49. Further, in assay [3] (setting [4]), the “Activity in LDL uptake (relative to control)” value is “++”. Further, the “Activity in LDL uptake (relative to control)” value in assay [3] (setting [5]) is “+”.
Regarding `COc1cc2c(cc1C(=O)N(C)C)C1Cc3ccc(OC)c(OS(=O)(=O)c4ccccc4)c3CN1CC2` (centres unmarked) [Compound 136, 2-(N,N-dimethylcarbamoyl)-3,10-dimethoxy-5,6,7,8,13,13a-hexahydroisoquinolino[2,1-b]isoquinolin-9-yl benzenesulfonate], in assay [1], the “PCSK9 mRNA level at 10 uM (fold of control)” value was 0.48 ± 0.03 fold of control and the “Activity on PCSK9 mRNA reduction at 40 uM (fold of control)” value is given as 0.62 ± 0.02 fold of control. Moreover, in assay [2], the fold induction at 10 µM amounted to 0.91 ± 0.05 and the fold induction at 40 µM amounted to 1.92 ± 0.32. Further, the “Activity in LDL uptake (relative to control)” value in assay [3] (setting [4]) is listed as “+”. In addition, the “Activity in LDL uptake (relative to control)” value in assay [3] (setting [5]) is “++”.
Consider `CCOc1ccc2c(c1)CCN1Cc3c(ccc(OC)c3OS(=O)(=O)c3ccccc3)CC21` (centres unmarked) [Compound 133, 3-Ethoxy-10-methoxy-5,6,7,8,13,13a-hexahydroisoquinolino[2,1-b]isoquinolin-9-yl benzenesulfonate], for which, in assay [1], the “PCSK9 mRNA level at 10 uM (fold of control)” value is listed as 1.04 ± 0.08 fold of control and the “Activity on PCSK9 mRNA reduction at 40 uM (fold of control)” value is 0.49 ± 0.01 fold of control. In assay [2], the fold induction at 10 µM is 4.92 and the fold induction at 40 µM was 6.61 ± 0.16. Also, the “Activity in LDL uptake (relative to control)” value in assay [3] (setting [4]) is “++”. In addition, the “Activity in LDL uptake (relative to control)” value in assay [3] (setting [5]) is given as “+”.
Regarding `COc1ccc2c(c1OS(=O)(=O)c1cccc(F)c1)CN1CCc3cc4c(cc3C1C2)OCCO4` (centres unmarked) [Compound 129, 11-Methoxy-6,7,8,9,14,14a-hexahydro-2H,3H-1,4-dioxano[5,6-g]isoquinolino[3,2-a]isoquinolin-10-yl 3-fluorobenzenesulfonate], in assay [1], the “PCSK9 mRNA level at 10 uM (fold of control)” value is on record as 1.57 ± 0.07 fold of control and the “Activity on PCSK9 mRNA reduction at 40 uM (fold of control)” value is listed as 1.68 ± 0.41 fold of control. Also, in assay [2], the fold induction at 10 µM worked out at 2.49 ± 0.18 and the fold induction at 40 µM stood at 1.99 ± 0.13. The “Activity in LDL uptake (relative to control)” value in assay [3] (setting [4]) is on record as “+”. The “Activity in LDL uptake (relative to control)” value in assay [3] (setting [5]) was “++”.
As to `COc1ccc2c(c1)CCN1Cc3c(ccc(OC)c3OS(=O)(=O)c3cccc(F)c3)CC21` (centres unmarked) [Compound 128, 3,10-Dimethoxy-5,6,7,8,13,13a-hexahydroisoquinolino[2,1-b]isoquinolin-9-yl 3-fluorobenzenesulfonate], in assay [1], the “PCSK9 mRNA level at 10 uM (fold of control)” value was 0.96 ± 0.00 fold of control and the “Activity on PCSK9 mRNA reduction at 40 uM (fold of control)” value is 0.86 ± 0.029 fold of control. In assay [2], the fold induction at 10 µM was found to be 7.52 ± 0.26 and the fold induction at 40 µM was determined as 13.4 ± 0.46. Further, the “Activity in LDL uptake (relative to control)” value in assay [3] (setting [4]) is on record as “+++/+++”. Moreover, the “Activity in LDL uptake (relative to control)” value in assay [3] (setting [5]) is reported as “+++/+++”.
As to `COc1cc2c(cc1OCCO)C1Cc3ccc(OC)c(OS(=O)(=O)c4ccccc4)c3CN1CC2` (centres unmarked) [Compound 143, 2-(2-hydroxyethoxy)-3,10-dimethoxy-5,6,7,8,13,13a-hexahydroisoquinolino[2,1-b]isoquinolin-9-yl benzenesulfonate], in assay [1], the “PCSK9 mRNA level at 10 uM (fold of control)” value is on record as 1.09 ± 0.09 fold of control and the “Activity on PCSK9 mRNA reduction at 40 uM (fold of control)” value is 0.48 ± 0.06 fold of control. In assay [2], the fold induction at 10 µM was 1.87 ± 0.03 and the fold induction at 40 µM stood at 15 ± 1.68. For the same compound, the “Activity in LDL uptake (relative to control)” value in assay [3] (setting [5]) is given as “++”.
For `COc1cc2c(cc1OC)C1C(C)c3ccc(OC)c(OS(=O)(=O)c4ccccc4)c3CN1CC2` (centres unmarked) [Compound 139, 2,3,10-Trimethoxy-13-methyl-5,6,7,8,13,13a-hexahydro isoquinolino[2,1-b]isoquinolin-9-yl benzenesulfonate], in assay [1], the “PCSK9 mRNA level at 10 uM (fold of control)” value is recorded as 0.46 ± 0.04 fold of control and the “Activity on PCSK9 mRNA reduction at 40 uM (fold of control)” value is listed as 0.27 ± 0.02 fold of control. Further, in assay [2], the fold induction at 10 µM came to 11.5 ± 1.29 and the fold induction at 40 µM worked out at 3.02 ± 0.34. Besides, in assay [3] (setting [4]), the “Activity in LDL uptake (relative to control)” value is recorded as “++/++”. In addition, the “Activity in LDL uptake (relative to control)” value in assay [3] (setting [5]) is “++/++”.
`COc1cc2c(cc1C(=O)NCCO)C1Cc3ccc(OC)c(OS(=O)(=O)c4ccccc4)c3CN1CC2` (centres unmarked) [Compound 137, 2-[N-(2-hydroxyethyl)carbamoyl]-3,10-dimethoxy-5,6,7,8,13,13a-hexahydroisoquinolino[2,1-b]isoquinolin-9-yl benzenesulfonate]: in assay [1], the “PCSK9 mRNA level at 10 uM (fold of control)” value was 0.45 ± 0.06 fold of control and the “Activity on PCSK9 mRNA reduction at 40 uM (fold of control)” value is given as 0.34 ± 0.00 fold of control. Moreover, in assay [2], the fold induction at 10 µM is 1.61 ± 0.19 and the fold induction at 40 µM is 2.66 ± 0.04. The “Activity in LDL uptake (relative to control)” value in assay [3] (setting [4]) is “+”. In assay [3] (setting [5]), the “Activity in LDL uptake (relative to control)” value is given as “+++”.
Take `COc1ccc2c(c1OS(=O)(=O)c1ccccc1)CN1CCc3ccccc3C1C2` (centres unmarked) [Compound 134, 10-Methoxy-5,6,7,8,13,13a-hexahydroisoquinolino[2,1-b]isoquinolin-9-yl benzenesulfonate]: in assay [1], the “PCSK9 mRNA level at 10 uM (fold of control)” value was 1.25 ± 0.03 fold of control and the “Activity on PCSK9 mRNA reduction at 40 uM (fold of control)” value is reported as 0.86 ± 0.02 fold of control. Besides, in assay [2], the fold induction at 10 µM was 1.41 ± 0.07 and the fold induction at 40 µM came out at 6.23 ± 0.64. Also, the “Activity in LDL uptake (relative to control)” value in assay [3] (setting [5]) is listed as “+”.
Turning to `COc1cc2c(cc1OC)C1Cc3ccc(OC)c(OS(=O)(=O)c4cccc(F)c4)c3CN1CC2` (centres unmarked) [Compound 127, 2,3,10-Trimethoxy-5,6,7,8,13,13a-hexahydroisoquinolino[2,1-b]isoquinolin-9-yl 3-fluorobenzenesulfonate], in assay [1], the “PCSK9 mRNA level at 10 uM (fold of control)” value is 0.197 ± 0.014 fold of control and the “Activity on PCSK9 mRNA reduction at 40 uM (fold of control)” value was 0.192 ± 0.016 fold of control. Besides, the “PCSK9 mRNA expression, in words” value in assay [1] (10 and 40 uM) is recorded as “strongly inhibits PCSK9 expression”. In assay [2], the fold induction at 10 µM stood at 1.8 ± 0.13 and the fold induction at 40 µM came to 2.38 ± 0.38. Further, the “Activity in LDL uptake (relative to control)” value in assay [3] (setting [4]) was “+++/+++”. In assay [3] (setting [5]), the “Activity in LDL uptake (relative to control)” value was “+++/+++”.
